Laboratory results from patent publication US4695576A, “L-N-n-propylpipecolic acid-2,6-xylidide” (priority 1985, dated 1987).

Legend:
[1] = tested on: peripheral nerve endings of the epidermis; assay: Intracutaneous wheals, infiltration anesthesia on forearms of man; assay type: in vivo; settings: 12 healthy volunteers, pinprick
Text: By use of intracutaneous wheals it is possible to measure the analgesic effect of an anesthetic on the peripheral nerve endings of the epidermis.
This technique gives information about:
(1) The duration of anesthesia.
^1 Infiltration anesthesia on forearms of man. The test solutions wer
injected intracutaneously on the dorsum of the forearms of 12 healthy
volunteers, 20-25 years old. Three wheals were made on each arm in a
rotating system in a doublebind fashion. The local anesthetic effect was
tested using a pinprick technique. The "duration of anesthesia" was
defined as the time during which none out of six pinpricks into the wheal
was felt. The method has been described by Dhuner et al. (1972). […]

ulnar volar nerves = assay: Finger blockade, digital nerve blocks in man; assay type: in vivo; settings: for Time of onset, finger blockade: time from injection to complete analgesia
Protocol: ^2 Digital nerve blocks in man. The test solutions were injected to
block the ulnar volar nerves on the 2nd and 4th fingers of the same
volunteers who had participated in the intracutaneous wheal tests
described above. The tests were carried out in a double blind fashion in
rotating system, so that each solution was used with equal frequency on
each of the blocked fingers. A total of for injections 1.0 ml per
injection, was done in each subject. One week later the procedure was
repeated in the same subjects using the remaining test solutions. This
method has been described by Dhuner et al. (1972) (for citation see Table
2 footnote 1). To measure the efficacy and duration of the blocks, the
individual fingers were pricked rapidly 10 times with a needle algesimete
and the number of painful pricks noted. Each finger was tested every five
minutes until complete recovery. The time of complete anesthesia has been
called "duration of anesthesia".
*i.e. the time from injection to complete analgesia?
**i.e. the number of successful anesthesias of total number of
anesthesias performed (no anesthesia is possible if the ulnar volar nerve
are not contacted by the anesthetic).

tissue [2] = settings: in vivo; cited from earlier work
skin = assay: Skin temperature measurements within intracutaneous wheals; assay type: in vivo, man; settings: Conc. 1.0%, HCl-salt, 10 minutes after injection
Protocol: The mean value of 6 wheals for each substance forms the basis for the values. The control values, however, represent the mean value obtained from 4 different sites measured outside the wheals 90 degrees apart and 2 centimeters from the wheal's center.
In the temperature measurements, an Oriel temperature apparatus* has been used. This is battery driven and is connected to a detector (diameter, 2.5 mm) and has an accuracy of ±0.1° C. The temperature of the skin is measured by pressing the detector against the skin with a pressure of 100 grams. It is retained against the skin until a constant temperature is obtained.
In Table 4, T1 is the measurement obtained at the center of the wheal, and T2 is the average of four measurements taken 90 degrees apart outside of the wheal and within 2 centimeters of the wheal's center.

tissue [3] = assay: Tissue toxicity limits (Trypan blue test, threshold of tissue irritancy); assay type: in vivo; settings: in vivo
Text: The toxicity of the homologous series of N-alkylpipecolic acid-2,6-xylidides increases step wise and quickly with the lengthening of the alkyl chain. This is manifest from Table 1 set forth below, which compares racemic mixtures of alkyl homologues having from 1 to 5 carbon atoms.
*Trypan blue test; Hoppe et al. (1950), 39, 147-151 "Use of Trypan Blue
and Rabbit Eye Tests For Irritation", J. Amer. Pharm. Assoc. (Scient.
Ed.), the values are approximate threshold values of tissue irritancy.

Q: For CCN1CCCC[C@@H]1C(=O)Nc1c(C)cccc1C [2 D], which “Analgesia-duration, intracutaneous wheals” value ([1]; Conc. 0.25%) is on record?
A: 58 ± 11 min

Q: What about the “Analgesia-duration, finger blockade” value (ulnar volar nerves; Concentration 0.5%) of the same compound?
A: 112 ± 21 min

Q: And the “Frequency (successful anesthesias of total performed)” value (from here on “Frequency”) (ulnar volar nerves; Concentration 0.5%)?
A: 10/13

Q: And the “Time of onset, finger blockade” value (ulnar volar nerves; Concentration 0.5%)?
A: 9 ± 3 min

Q: Which tissue irritation (tissue [2]) does the source give for CCCCCN1CCCC[C@H]1C(=O)Nc1c(C)cccc1C [5 L] here?
A: irritating

Q: Which “Analgesia-duration, intracutaneous wheals” value ([1]; Conc. 0.25%) does the source give for CCCCN1CCCC[C@H]1C(=O)Nc1c(C)cccc1C [4 L] here?
A: 76 ± 10 min

Q: And the “Analgesia-duration, finger blockade” value (ulnar volar nerves; Concentration 0.25%)?
A: 259 ± 37 min

Q: And the “Frequency” value (ulnar volar nerves; Concentration 0.25%)?
A: 13/20

Q: And the “Time of onset, finger blockade” value (ulnar volar nerves; Concentration 0.25%)?
A: 13 ± 3 min

Q: With CCCCCN1CCCC[C@@H]1C(=O)Nc1c(C)cccc1C [5 D] as the compound, how does the tissue irritation (tissue [2]) read?
A: irritating

Q: Which results are given for CCN1CCCC[C@H]1C(=O)Nc1c(C)cccc1C [2 L]?
A: Analgesia-duration, finger blockade (ulnar volar nerves; Concentration 0.5%): 141 ± 18 min; Frequency (successful anesthesias of total performed) (ulnar volar nerves; Concentration 0.5%): 11/13; Time of onset, finger blockade (ulnar volar nerves; Concentration 0.5%): 9 ± 2 min

Q: For Cc1cccc(C)c1NC(=O)C1CCCCN1CCO (centres unmarked) [R--N--2-hydroxyethyl-pipecolic acid-2,6-xylidide], which “Temperature Difference (T1 wheal vs T2 controls)” value (skin) is on record?
A: +0.5 °C

Q: And the “T1 Intracutaneous Wheal temperature” value (skin; mean of 6 wheals)?
A: 31.2 °C

Q: For Cc1cccc(C)c1NC(=O)C1CCCCN1C (racemic) [1 R, N--methylpipecolic acid-2,6-xylidide], which “Analgesia-duration, intracutaneous wheals” value ([1]; Conc. 0.5%) is on record?
A: 65 ± 9 min

Q: What about the “Analgesia-duration, finger blockade” value (ulnar volar nerves; Concentration 1.0%) of the same compound?
A: 102 ± 22 min

Q: What about the “Frequency” value (ulnar volar nerves; Concentration 1.0%) of the same compound?
A: 13/13

Q: And the “Time of onset, finger blockade” value (ulnar volar nerves; Concentration 1.0%)?
A: 7 ± 2 min

Q: What about the “Tissue toxicity limits in %” value (tissue [3]) of the same compound?
A: 3.5%
